Test results reported in patent US20100267561A1, “HERBICIDAL PYRIDAZINONE DERIVATIVES” (priority 2007, published 2010).

Tests used:
Assay type in all cases: in vivo
[1] = tested on: pigweed (Amaranthus retroflexus); experiment: Test A pre-/postemergence plant response
Method in brief: (§1)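 Soil: loam blended with sand. Formulation: non-phytotoxic solvent mixture plus surfactant, applied as preemergence directed soil spray and as postemergence spray. Scoring: visual, 0 no effect to 100 complete control, roughly 10 days post-treatment in greenhouse.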

[2] = tested on: morningglory (Ipomoea coccinea); experiment: Test A pre-/postemergence plant response
Method in brief: as §1

corn (Zea mays) = experiment: Test A pre-/postemergence plant response
Method in brief: as §1

[3] = tested on: barnyardgrass (Echinochloa crus-galli); experiment: Test A pre-/postemergence plant response
Method in brief: as §1

[4] = tested on: large crabgrass (Digitaria sanguinalis); experiment: Test A pre-/postemergence plant response
Method in brief: as §1

[5] = tested on: Italian ryegrass (Lolium multiflorum); experiment: Test B pre-/postemergence plant response; settings: Preemergence
Method in brief: (§2)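 Visual scoring from 0 (no effect) to 100 (complete control) against untreated controls was done 13 to 15 days after greenhouse treatment. Chemicals were formulated in a surfactant-containing non-phytotoxic solvent and applied to soil preemergence or to 1- to 4-leaf (2-18 cm) plants postemergence.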

[6] = tested on: bermudagrass (Cynodon dactylon); experiment: Test B pre-/postemergence plant response; settings: Preemergence; for Bermudagrass plant response rating: 8 g ai/ha
Method in brief: as §2

[7] = tested on: johnsongrass (Sorghum halepense); experiment: Test B pre-/postemergence plant response; settings: Preemergence
Method in brief: as §2

[8] = Postemergence, 125 g ai/ha, 0 to 100 scale, 0 no effect, 100 complete control
[9] = Postemergence, 500 g ai/ha, 0 to 100 scale, 0 no effect, 100 complete control
[10] = Preemergence, 125 g ai/ha, 0 to 100 scale (0 no effect, 100 complete control)
[11] = Preemergence, 500 g ai/ha, 0 to 100 scale (0 no effect, 100 complete control)
[12] = 16 g ai/ha, scale 0 to 100 (0 no effect, 100 complete control)
[13] = 31 g ai/ha, 0 to 100 scale, 0 no effect, 100 complete control
[14] = Postemergence, 31 g ai/ha, 0 to 100 scale, 0 no effect, 100 complete control
[15] = Preemergence, 31 g ai/ha, 0 to 100 scale, 0 is no effect, 100 is complete control
[16] = 31 g ai/ha, scale 0 to 100 (0 no effect, 100 complete control)
[17] = scale 0 to 100 (0 no effect, 100 complete control)

SMILES: Cc1cc(-c2ccc(C(F)(F)F)cc2)nn1-c1c(O)c(C(C)C)nn(C)c1=O [Compound 27]
- Plant response rating, Pigweed [1, 8]: 0
- Plant response rating, Pigweed [1, 9]: 0
- Plant response rating, Pigweed [1, 10]: 0
- Plant response rating, Pigweed [1, 11]: 0
- Plant response rating, Morningglory [2, 8]: 0
- Plant response rating, Morningglory [2, 9]: 0
- Plant response rating, Morningglory [2, 10]: 0
- Plant response rating, Morningglory [2, 11]: 0
- Plant response rating, Corn (corn (Zea mays); [8]): 50
- Plant response rating, Corn (corn (Zea mays); [9]): 80
- Plant response rating, Corn (corn (Zea mays); [10]): 20
- Plant response rating, Corn (corn (Zea mays); [11]): 80
- Plant response rating, Barnyardgrass [3, 8]: 20
- Plant response rating, Barnyardgrass [3, 9]: 90
- Plant response rating, Barnyardgrass [3, 10]: 80
- Plant response rating, Barnyardgrass [3, 11]: 100
- Plant response rating, Crabgrass, Large [4, 8]: 60
- Plant response rating, Crabgrass, Large [4, 9]: 80
- Plant response rating, Crabgrass, Large [4, 10]: 80
- Plant response rating, Crabgrass, Large [4, 11]: 100
- Plant response rating, Ryegrass, Italian [5, 12]: 0
- Plant response rating, Ryegrass, Italian [5, 13]: 70
- Plant response rating, Ryegrass, Italian ([5]; 62 g ai/ha, scale 0 to 100): 95
- Ryegrass, Italian plant response rating ([5]; 8 g ai/ha, scale 0 to 100): 0
- Plant response rating, Bermudagrass [6, 12]: 0
- Plant response rating, Bermudagrass [6, 13]: 100
- Plant response rating, Bermudagrass ([6]; 62 g ai/ha, scale 0 to 100): 100
- Plant response rating, Johnsongrass [7, 12]: 40
- Plant response rating, Johnsongrass [7, 13]: 75
- Plant response rating, Johnsongrass ([7]; 62 g ai/ha, scale 0 to 100): 85
- Johnsongrass plant response rating ([7]; 8 g ai/ha, scale 0 to 100): 0

SMILES: Cc1ccc(-c2ccc(Cl)cc2)cc1-c1c(O)cnn(C)c1=O [Compound 46]
- Plant response rating, Pigweed [1, 14]: 0
- Plant response rating, Pigweed [1, 8]: 0
- Plant response rating, Pigweed [1, 15]: 0
- Plant response rating, Pigweed [1, 10]: 0
- Plant response rating, Morningglory [2, 14]: 0
- Plant response rating, Morningglory [2, 8]: 0
- Plant response rating, Morningglory [2, 15]: 0
- Plant response rating, Morningglory [2, 10]: 0
- Plant response rating, Corn (corn (Zea mays); [14]): 20
- Plant response rating, Corn (corn (Zea mays); [8]): 50
- Plant response rating, Corn (corn (Zea mays); [15]): 0
- Plant response rating, Corn (corn (Zea mays); [10]): 0
- Plant response rating, Barnyardgrass [3, 14]: 0
- Plant response rating, Barnyardgrass [3, 8]: 50
- Plant response rating, Barnyardgrass [3, 15]: 40
- Plant response rating, Barnyardgrass [3, 10]: 100
- Plant response rating, Crabgrass, Large [4, 14]: 0
- Plant response rating, Crabgrass, Large [4, 8]: 40
- Plant response rating, Crabgrass, Large [4, 15]: 10
- Plant response rating, Crabgrass, Large [4, 10]: 90
- Plant response rating, Ryegrass, Italian [5, 12]: 10
- Plant response rating, Ryegrass, Italian [5, 16]: 40
- Plant response rating, Ryegrass, Italian ([5]; 62 g ai/ha, scale 0 to 100): 100
- Ryegrass, Italian plant response rating ([5]; 8 g ai/ha, scale 0 to 100): 0
- Bermudagrass plant response rating [6, 17]: 0
- Plant response rating, Bermudagrass [6, 12]: 20
- Plant response rating, Bermudagrass [6, 13]: 85
- Plant response rating, Bermudagrass ([6]; 62 g ai/ha, scale 0 to 100): 100
- Plant response rating, Johnsongrass [7, 12]: 55
- Plant response rating, Johnsongrass [7, 13]: 85
- Plant response rating, Johnsongrass ([7]; 62 g ai/ha, scale 0 to 100): 90

SMILES: Cc1cc(-c2ccc(Cl)cc2)nn1-c1c(OS(=O)(=O)c2ccc(Cl)s2)cnn(C)c1=O [Compound 55]
- Plant response rating, Pigweed [1, 14]: 0
- Plant response rating, Pigweed [1, 8]: 0
- Plant response rating, Pigweed [1, 15]: 0
- Plant response rating, Pigweed [1, 10]: 0
- Plant response rating, Morningglory [2, 14]: 0
- Plant response rating, Morningglory [2, 8]: 0
- Plant response rating, Morningglory [2, 15]: 0
- Plant response rating, Morningglory [2, 10]: 0
- Plant response rating, Corn (corn (Zea mays); [14]): 0
- Plant response rating, Corn (corn (Zea mays); [8]): 40
- Plant response rating, Corn (corn (Zea mays); [15]): 0
- Plant response rating, Corn (corn (Zea mays); [10]): 40
- Plant response rating, Barnyardgrass [3, 14]: 0
- Plant response rating, Barnyardgrass [3, 8]: 30
- Plant response rating, Barnyardgrass [3, 15]: 0
- Plant response rating, Barnyardgrass [3, 10]: 80
- Plant response rating, Crabgrass, Large [4, 14]: 10
- Plant response rating, Crabgrass, Large [4, 8]: 60
- Plant response rating, Crabgrass, Large [4, 15]: 20
- Plant response rating, Crabgrass, Large [4, 10]: 80
- Plant response rating, Ryegrass, Italian [5, 16]: 90
- Plant response rating, Ryegrass, Italian ([5]; 62 g ai/ha, scale 0 to 100): 100
- Ryegrass, Italian plant response rating ([5]; 8 g ai/ha, scale 0 to 100): 60
- Ryegrass, Italian plant response rating ([5]; 16 g ai/ha, scale 0 to 100): 70
- Bermudagrass plant response rating [6, 17]: 100
- Plant response rating, Bermudagrass [6, 12]: 100
- Plant response rating, Bermudagrass [6, 13]: 100
- Plant response rating, Bermudagrass ([6]; 62 g ai/ha, scale 0 to 100): 100
- Plant response rating, Johnsongrass [7, 13]: 70
- Plant response rating, Johnsongrass ([7]; 62 g ai/ha, scale 0 to 100): 95
- Johnsongrass plant response rating ([7]; 8 g ai/ha, scale 0 to 100): 0
- Johnsongrass plant response rating ([7]; 16 g ai/ha, scale 0 to 100): 15

SMILES: Cc1cc(-c2ccc(Cl)cc2)nn1-c1c(OS(=O)(=O)c2cccc3ccccc23)cnn(C)c1=O [Compound 47]
- Plant response rating, Pigweed [1, 14]: 0
- Plant response rating, Pigweed [1, 8]: 0
- Plant response rating, Pigweed [1, 15]: 0
- Plant response rating, Pigweed [1, 10]: 0
- Plant response rating, Morningglory [2, 14]: 0
- Plant response rating, Morningglory [2, 8]: 0
- Plant response rating, Morningglory [2, 15]: 0
- Plant response rating, Morningglory [2, 10]: 0
- Plant response rating, Corn (corn (Zea mays); [14]): 0
- Plant response rating, Corn (corn (Zea mays); [8]): 10
- Plant response rating, Corn (corn (Zea mays); [15]): 0
- Plant response rating, Corn (corn (Zea mays); [10]): 40
- Plant response rating, Barnyardgrass [3, 14]: 0
- Plant response rating, Barnyardgrass [3, 8]: 40
- Plant response rating, Barnyardgrass [3, 15]: 20
- Plant response rating, Barnyardgrass [3, 10]: 80
- Plant response rating, Crabgrass, Large [4, 14]: 10
- Plant response rating, Crabgrass, Large [4, 8]: 50
- Plant response rating, Crabgrass, Large [4, 15]: 10
- Plant response rating, Crabgrass, Large [4, 10]: 90
- Plant response rating, Ryegrass, Italian [5, 12]: 80
- Plant response rating, Ryegrass, Italian [5, 16]: 90
- Plant response rating, Ryegrass, Italian ([5]; 62 g ai/ha, scale 0 to 100): 98
- Ryegrass, Italian plant response rating ([5]; 8 g ai/ha, scale 0 to 100): 0
- Bermudagrass plant response rating [6, 17]: 60
- Plant response rating, Bermudagrass [6, 12]: 100
- Plant response rating, Bermudagrass [6, 13]: 100
- Plant response rating, Bermudagrass ([6]; 62 g ai/ha, scale 0 to 100): 100
- Plant response rating, Johnsongrass [7, 12]: 75
- Plant response rating, Johnsongrass [7, 13]: 85
- Plant response rating, Johnsongrass ([7]; 62 g ai/ha, scale 0 to 100): 95
- Johnsongrass plant response rating ([7]; 8 g ai/ha, scale 0 to 100): 0
